Here are results for six compounds from patent publication US6660310B2, “Method to infuse fresh fruits and vegetables with an agent” (American Moxie LLC, priority 2000, dated 2003).

Peptide text beside a SMILES is read from it.

For test [1], the system named is GabaA, Benzodiazepine (Central) Site. Kind of test: GabaA, Benzodiazepine (Central) Site Binding Assay. On the set-up: species or system Bovine.
The conditions of test [2]: extracts from Experiment 5; tested only in apple and strawberry.
A short description of test [3]: Taste test: sweetness of materials infused with sweetening agents. The conditions noted are these: apples, strawberries. The text has this:
Apples, strawberries, carrots and celery were infused with either aspartame or saccharin with standard procedures, as described above, and sweetness was compared with untreated control. […] Clearly an optimal amount of sweetening agent would be lower. The taste test was repeated using a 0.2% concentration of each sweetening agent with the four biological materials.

Test [4] is described as follows: Taste test: taste or "heat" of materials infused with capsaicin. To be noted: carrots, apples and squash infused with 2% capsaicin. An excerpt: Carrots, apples and squash were infused with 2% capsaicin (the active constituent of cayenne pepper) with standard procedures, as described above, and the taste or “heat” of the infused materials was compared with untreated control materials.

[5] abbreviates: carrots and celery infused with standard procedures.
Where [6] appears, read: carrots and celery, 0.2% concentration of sweetening agent.

With `CN1C(=O)CN=C(c2ccccc2F)c2cc([N+](=O)[O-])ccc21` [Flunitrazepam, flunitrazepam], the “specific binding of extract containing the infused agent” value in test [1] (extracts from Experiment 5, tested only in celery and tomato) is listed as “demonstrated specific binding”. Turning to `C[C@]1(O)CC[C@H]2[C@@H]3CCC4=CC(=O)CCC4=C3C=C[C@@]21C` [Methyltrienolone, methyltrienolone], in test [2], the “specific binding of extract containing the infused agent” value is “demonstrated specific binding”. Broadly, the Kd is a measure of binding affinity in units of concentration. In the case of `CN1C(=O)CN=C(c2ccccc2F)c2cc([N+](=O)[O-])ccc21` [[^3H] Flunitrazepam], the Kd in test [1] (assay characteristic of the radioligand, bovine cortical membranes, read-out: KD (binding affinity)) was 1.4 nM. For `COC(=O)[C@H](Cc1ccccc1)NC(=O)[C@@H](N)CC(=O)O` [aspartame] (H-Asp-Phe-OMe), the “sweetness compared with untreated control” value is “markedly and significantly sweeter” in test [3] (setting [5]); “significantly enhanced over the untreated controls” in test [3] (setting [6]).

With `COc1cc(CNC(=O)CCCCC=CC(C)C)ccc1O` [capsaicin, 8-methyl-N-vanillyl-6-nonenamide], the “taste or "heat" compared with untreated control” value in test [4] was “markedly and significantly “hotter””. In the case of `O=C1NS(=O)(=O)c2ccccc21` [saccharin], the “sweetness compared with untreated control” value in test [3] (setting [5]) was “markedly and significantly sweeter”; in test [3] (setting [6]), “significantly enhanced over the untreated controls”.
